Measurements taken from patent US9434780B2, “Process for preparing human relaxin-2” (Relaxera Pharma GmbH & Co. KG i.G., priority 2011, dated 2016).
Where no end group is shown, it is not given here.

Assays:
human THP-1 cells = assay: cAMP assay in human THP-1 cells; type: cell-based; conditions: FIG. 6, compared with recombinant relaxin-2
cardiac fibroblasts = assay: cell model of myocardial hypertrophy; type: cell-based; conditions: inhibition of cardiac fibroblast differentiation into myofibroblasts and of growth factor secretion; compared with recombinant
Text: In this model, relaxin inhibits the differentiation of cardiac fibroblasts into myofibroblasts and the secretion of growth factors by these cells (Dschietzig et al., 2006).

receptor RXFP1 = target: T1, receptor RXFP1 (Homo sapiens, UniProt Q9HBX9); assay: displacement of europium-labeled relaxin-2 in HEK-293T cells expressing RXFP1; type: binding; conditions: HEK-293T cells expressing natural receptor RXFP1; compared with recombinant human relaxin-2
T1 construct: expressed in transfected cells; host or cells: HEK-293T
T1 sequence (Q9HBX9 1-757): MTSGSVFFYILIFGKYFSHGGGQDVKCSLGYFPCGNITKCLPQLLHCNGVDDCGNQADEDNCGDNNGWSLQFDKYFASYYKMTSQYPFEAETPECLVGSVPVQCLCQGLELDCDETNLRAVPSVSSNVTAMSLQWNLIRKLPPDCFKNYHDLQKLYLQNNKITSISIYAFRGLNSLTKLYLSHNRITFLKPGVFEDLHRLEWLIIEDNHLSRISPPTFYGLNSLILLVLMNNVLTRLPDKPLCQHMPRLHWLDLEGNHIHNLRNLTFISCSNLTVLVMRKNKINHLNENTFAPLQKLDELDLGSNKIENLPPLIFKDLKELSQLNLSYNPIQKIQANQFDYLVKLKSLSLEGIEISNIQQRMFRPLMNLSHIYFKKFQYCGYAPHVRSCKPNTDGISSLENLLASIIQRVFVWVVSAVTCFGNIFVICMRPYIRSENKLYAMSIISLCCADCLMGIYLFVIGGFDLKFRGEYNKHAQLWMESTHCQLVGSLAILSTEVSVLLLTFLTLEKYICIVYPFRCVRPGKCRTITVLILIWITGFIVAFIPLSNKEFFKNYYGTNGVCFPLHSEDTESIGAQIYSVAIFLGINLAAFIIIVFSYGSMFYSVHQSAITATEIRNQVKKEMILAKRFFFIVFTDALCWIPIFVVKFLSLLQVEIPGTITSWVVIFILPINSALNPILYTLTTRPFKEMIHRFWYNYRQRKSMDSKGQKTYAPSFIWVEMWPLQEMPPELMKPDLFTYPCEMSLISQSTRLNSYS

cell models = assay: studies on cell models (bioassays); type: cell-based; conditions: compared with recombinant peptide
[1] = storage stability of lyophilized relaxin-2; type: physicochemical; conditions: 4° C., stored for several months, compared with fresh material
Protocol: The product is lyophilized for storage and stored at −20° C. The high stability of the preparation of highly pure relaxin-2 in lyophilized form at a temperature of 4° C. has been proven by corresponding analytics, in which fresh material was compared with material stored for several months.

AZ02: batch of relaxin-2 prepared by chemical synthesis (chain 1 ELYSALANKCCHVGCTKRSLARFC; chain 2 DSWMEEVIKLCGRELVRAQIAICGMSTWS; non-natural residues)
activity in cAMP assay (human THP-1 cells): comparable to that of the recombinantly prepared relaxin-2

human relaxin-2 [synthetic human relaxin-2]
potency in cell model of myocardial hypertrophy (cardiac fibroblasts): as potent as recombinant human relaxin-2 | activity in cAMP assay (human THP-1 cells): equivalent bioactivities | potency in displacing europium-labeled relaxin-2 (receptor RXFP1): same potency as recombinant human relaxin-2 | effect on cell models (cell models): excellent effect, comparable to that of the recombinant peptide | stability in lyophilized form [1]: only minor amounts of metabolites appear

recombinant human relaxin-2: recombinantly prepared human relaxin-2 used as comparator (chain 1 QLYSALANKCCHVGCTKRSLARFC; chain 2 DSWMEEVIKLCGRELVRAQIAICGMSTWS; not fully specified; ends and bridges not checked) [reference compound]
activity in cAMP assay (human THP-1 cells): equivalent bioactivities
